Tests used:
panel of 442 kinases [1] = target: T1, panel of 442 kinases (Homo sapiens, UniProt P54762); type: binding; conditions: Compound Concentration 10 µM
T1 construct: purchased KINOMEscan
T1 sequence (P54762 18-984): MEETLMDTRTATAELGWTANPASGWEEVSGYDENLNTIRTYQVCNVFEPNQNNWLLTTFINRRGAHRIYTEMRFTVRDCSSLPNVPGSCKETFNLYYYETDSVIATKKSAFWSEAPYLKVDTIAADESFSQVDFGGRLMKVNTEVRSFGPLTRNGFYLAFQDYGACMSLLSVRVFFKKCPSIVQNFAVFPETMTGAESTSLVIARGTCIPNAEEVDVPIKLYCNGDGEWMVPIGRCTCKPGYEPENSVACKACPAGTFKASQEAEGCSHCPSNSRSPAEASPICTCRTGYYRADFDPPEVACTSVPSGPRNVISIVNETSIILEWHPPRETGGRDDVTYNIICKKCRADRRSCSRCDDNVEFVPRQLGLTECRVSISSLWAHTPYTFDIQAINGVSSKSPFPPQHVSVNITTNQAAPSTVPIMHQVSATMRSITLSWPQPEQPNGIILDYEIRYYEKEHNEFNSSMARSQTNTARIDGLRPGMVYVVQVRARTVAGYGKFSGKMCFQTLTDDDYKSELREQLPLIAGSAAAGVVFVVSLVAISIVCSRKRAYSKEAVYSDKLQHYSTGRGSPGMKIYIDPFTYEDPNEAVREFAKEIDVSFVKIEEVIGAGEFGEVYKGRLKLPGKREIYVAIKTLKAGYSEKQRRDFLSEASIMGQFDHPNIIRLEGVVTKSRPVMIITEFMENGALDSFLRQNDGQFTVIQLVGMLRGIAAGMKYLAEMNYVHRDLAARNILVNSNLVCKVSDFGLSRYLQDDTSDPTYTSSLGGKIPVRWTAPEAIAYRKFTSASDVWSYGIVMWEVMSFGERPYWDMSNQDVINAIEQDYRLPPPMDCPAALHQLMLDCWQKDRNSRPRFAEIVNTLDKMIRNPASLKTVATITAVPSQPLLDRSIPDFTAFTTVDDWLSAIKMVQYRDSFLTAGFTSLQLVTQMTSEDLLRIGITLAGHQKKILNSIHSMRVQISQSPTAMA
Excerpt: (§1) We assessed the selectivity of members of this scaffold using the KINOMEscan methodology across a near comprehensive panel of 442 kinases [[18,27]].

panel of 442 kinases [2] = target: T2, panel of 442 kinases (Homo sapiens, UniProt P57058); type: binding; conditions: Compound Concentration 10 µM
T2 construct: purchased KINOMEscan
T2 sequence (P57058 1-714): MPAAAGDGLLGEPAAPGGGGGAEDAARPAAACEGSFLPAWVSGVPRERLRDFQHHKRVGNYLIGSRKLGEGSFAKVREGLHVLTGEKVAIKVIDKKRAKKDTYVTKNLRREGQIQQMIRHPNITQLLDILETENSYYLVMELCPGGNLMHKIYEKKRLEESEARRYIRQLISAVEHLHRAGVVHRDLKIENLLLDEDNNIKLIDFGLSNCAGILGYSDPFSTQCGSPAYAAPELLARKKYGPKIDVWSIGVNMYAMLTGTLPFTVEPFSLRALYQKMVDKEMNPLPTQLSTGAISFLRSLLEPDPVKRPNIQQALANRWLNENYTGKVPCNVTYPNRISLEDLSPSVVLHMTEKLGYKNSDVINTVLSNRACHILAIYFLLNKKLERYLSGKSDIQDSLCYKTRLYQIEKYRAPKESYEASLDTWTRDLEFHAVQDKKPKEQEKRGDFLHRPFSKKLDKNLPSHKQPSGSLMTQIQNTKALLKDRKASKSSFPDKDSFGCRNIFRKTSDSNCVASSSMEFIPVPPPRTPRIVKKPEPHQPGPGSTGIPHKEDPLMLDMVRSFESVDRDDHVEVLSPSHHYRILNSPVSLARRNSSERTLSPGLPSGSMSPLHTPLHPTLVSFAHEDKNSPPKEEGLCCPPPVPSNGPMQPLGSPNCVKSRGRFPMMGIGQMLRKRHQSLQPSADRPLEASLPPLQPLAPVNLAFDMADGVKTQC
Excerpt: as §1

| Compound | KINOMEscan: EPHB1 (panel of 442 kinases [1]) | KINOMEscan: HUNK (panel of 442 kinases [2]) |
| --- | --- | --- |
| COc1cc(C(=O)N2CCC(N3CCN(C)CC3)CC2)ccc1Nc1ncc2c(n1)N(C)c1ccccc1C(=O)N2C [15 (LRRK2-IN-1)] | 98 | 100 |
| CCOc1cc(C(=O)N2CCC(N3CCN(C)CC3)CC2)ccc1Nc1ncc2c(n1)N(C1CCCC1)c1ccccc1C(=O)N2C [Compound 26] | 95 | 53 |
| COc1cc(C(=O)N2CCC(N3CCN(C)CC3)CC2)ccc1Nc1ncc2c(n1)N(C1CCCC1)c1ccccc1C(=O)N2C [Compound 25, 11-cyclopentyl-2-((2-methoxy-4-(4-(4-methylpiperazin-1-yl)piperidine-1-carbonyl)phenyl)amino)-5-methyl-5H-benzo[e]pyrimido[5,4-b][1,4]diazepin-6(11H)-one] | 95 | 100 |

Reference: article PMC3914206
